Test results taken from patent publication US7771727B2, “Conjugates of therapeutic or cytotoxic agents and biologically active peptides” (The Administrators of the Tulane Educational Fund, priority 2002, dated 2010).
Entries after “also recorded” stand apart in the source; their conditions may differ. Where two headings read alike, the source gives them in different places. Numbered stars: 1 amine (or outer) side, 2 acyl side, 3 side chain; on linkers, the order of the positions; unused ones are H or OH. Bridge positions count the residues as written; N and C are the ends. Square brackets hold non-standard residues; d marks the D form. Peptide text beside a SMILES is read from it. * marks the point of attachment. Camptothecin(20S-OCO) = CC[C@@]1(OC(=O)*)C(=O)OCc2c1cc1n(c2=O)Cc2cc3ccccc3nc2-1; NGly(2-(methylamino)ethyl) = CN(CCN(CC(=O)[*:2])[*:1])[*:3]; X1 = COc1ccc(/C=C\c2cc(OC)c(OC)c(OC)c2)cc1OC(=O)*; Gly(N-2-aminoethyl) = NCCNCC(=O)O; X2 = CN(C)CCN(CC(=O)[*:2])[*:1]; Gly(N(CH2)3NH2) = NCCCNCC(=O)O; Gly(N-CH2CH2OH) = O=C(O)CNCCO; Nle = CCCC[C@H](N)C(=O)O

How the values were obtained:
[1] = tested on: NCI-H69 small cell lung carcinomas (expression of SSTR2); settings: nude mice; doses far below the maximum tolerated equivalent doses of camptothecin alone
[2] = tested on: GH release from monolayer cultures of rat pituitary cells; type: cell-based; settings: read-out: Growth Hormone Inhibition IC50
tumor = test: Preliminary tumor bearing animal studies; type: in vivo; settings: repeated intraperitoneal administration
physchem = settings: for Half Life Phosphate Buffer / half-life: buffer
Procedure: (§1) Each peptide conjugate was subjected to phosphate buffer and rat serum stability studies. The analogues were incubated in either 0.1 M phosphate buffer or fresh rat serum at 37° C. and aliquots were taken at different time points and examined by HPLC.

[3] = tested on: human neuroblastoma IMR32 cells (somatostatin receptor overexpression); test: MTT cytotoxicity assay, IMR-32 cells; settings: for cytotoxic activity: 3 days
Procedure: The cytotoxic activities of these conjugates were measured using a standard MTT assay kit (Promega Corporation, Madison, Wis.). Each compound was incubated for 3 days with human neuroblastoma IMR32 cells (somatostatin receptor overexpression) at different concentrations in quadruplate and IC50's were generated from the dose-response curves (FIG. 2).

in vitro = test: in vitro
Procedure: as §1

[4] = camptothecin: tertiary hydroxyl, ring position 20; combretastatin: phenolic hydroxyl; cited from earlier work
[5] = Homo sapiens, IMR-32, 72 h, read-out: Cytotoxicity IC50, IMR-32 Cells
[6] = phosphate buffer, length of the experiment 50 h

For `CCCC[C@H](NC(=O)[C@@H](CO)NC(=O)CN(CCNC)C(=O)O[C@]1(CC)C(=O)OCc2c1cc1n(c2=O)Cc2cc3ccccc3nc2-1)C(=O)N[C@H](Cc1ccc(O)cc1)C(=O)N[C@H](CO)C(=O)N[C@H]1CSSC[C@@H](C(=O)N[C@H](C(N)=O)[C@@H](C)O)NC(=O)[C@H]([C@@H](C)O)NC(=O)[C@H](CCCCN)NC(=O)[C@@H](Cc2c[nH]c3ccccc23)NC(=O)[C@H](Cc2ccccc2)NC1=O` [Compound 2, camptothecin-carbonyl-N-(N-methyl-2-aminoethyl)-glycine-D-Ser-Nle-D-Tyr-D-Ser-cyclo[Cys-Phe-D-Trp-Lys-Thr-Cys]-Thr-amide] ({Camptothecin(20S-OCO)}-[NGly(2-(methylamino)ethyl)][dS][Nle][dY][dS]CF[dW]KTCT-NH2; disulfide 6-11), which “growth of transplanted NCI-H69 small cell lung carcinomas” value [1] is on record?
The value was “significantly stabilize the growth”.

And the IC50 [2]?
Its IC50 is 0.27 ± 0.02 nM.

What about the “cytotoxic effect in the tumor” value (tumor) of the same compound?
The value was “equally effective”.

What about the “Half Life Phosphate Buffer” value (physchem) of the same compound?
The value was 123 h.

What about the half-life (physchem) of the same compound?
The half-life was about 120 h.

What about the “stability to cell media incubation conditions” value [3] of the same compound?
The value was “very stable”.

What about the IC50 ([3]; human) of the same compound?
The IC50 was 54.2 ± 6 nM.

And the “Half-Life Rat Serum” value (in vitro; rat, serum)?
The value was 18 h.

And the half-life (in vitro; rat, serum)?
The half-life was 18 h.

For `CCCC[C@H](NC(=O)[C@@H](CO)NC(=O)CN(CCN(C)C)C(=O)O[C@]1(CC)C(=O)OCc2c1cc1n(c2=O)Cc2cc3ccccc3nc2-1)C(=O)N[C@H](Cc1ccc(O)cc1)C(=O)N[C@H](CO)C(=O)N[C@H]1CSSC[C@@H](C(=O)N[C@H](C(N)=O)[C@@H](C)O)NC(=O)[C@H]([C@@H](C)O)NC(=O)[C@H](CCCCN)NC(=O)[C@@H](Cc2c[nH]c3ccccc23)NC(=O)[C@H](Cc2ccccc2)NC1=O` [Compound 3] ({Camptothecin(20S-OCO)}-[X2][dS][Nle][dY][dS]CF[dW]KTCT-NH2; disulfide 6-11), which IC50 [2] is on record?
Its IC50 is 0.3 ± 0.04 nM.

And the “buffer stability” value (physchem)?
The value was “complete buffer stability”.

And the “Half Life Phosphate Buffer” value (physchem)?
Its value is “Stable”.

What about the IC50 ([3]; human) of the same compound?
Its IC50 is 571 ± 48 nM.

What about the “rat serum stability” value (in vitro) of the same compound?
Its value is “most stable”.

And the half-life (in vitro; rat, serum)?
Its half-life is 59 h.

Which results are given for `COc1ccc(C[C@@H](O)c2cc(OC)c(OC)c(OC)c2)cc1O` [Combretastatin, reference compound]?
pKa of hydroxyl group [4]: approximately 10.3; IC50 [3, 5]: 4.36 nM

What does the source list for `CC[C@@]1(O)C(=O)OCc2c1cc1n(c2=O)Cc2cc3ccccc3nc2-1` [Camptothecin, reference compound]?
pKa of hydroxyl group [4]: approximately 18; IC50 [3, 5]: 2.21 ± 0.44 nM

Which results are given for `CCCC[C@H](NC(=O)[C@@H](CO)NC(=O)CN(CCO)C(=O)O[C@]1(CC)C(=O)OCc2c1cc1n(c2=O)Cc2cc3ccccc3nc2-1)C(=O)N[C@H](Cc1ccc(O)cc1)C(=O)N[C@H](CO)C(=O)N[C@H]1CSSC[C@@H](C(=O)N[C@H](C(N)=O)[C@@H](C)O)NC(=O)[C@H]([C@@H](C)O)NC(=O)[C@H](CCCCN)NC(=O)[C@@H](Cc2c[nH]c3ccccc23)NC(=O)[C@H](Cc2ccccc2)NC1=O` [Compound 5] ({Camptothecin(20S-OCO)}-[Gly(N-CH2CH2OH)][dS][Nle][dY][dS]CF[dW]KTCT-NH2; disulfide 6-11)?
IC50 [2]: 0.49 ± 0.1 nM; IC50 ([3]; human): > 1000 nM

Which results are given for `CCCC[C@H](NC(=O)[C@@H](CO)NC(=O)CN(CCN)C(=O)Oc1cc(/C=C\c2cc(OC)c(OC)c(OC)c2)ccc1OC)C(=O)N[C@H](Cc1ccc(O)cc1)C(=O)N[C@H](CO)C(=O)N[C@H]1CSSC[C@@H](C(=O)N[C@H](C(N)=O)[C@@H](C)O)NC(=O)[C@H]([C@@H](C)O)NC(=O)[C@H](CCCCN)NC(=O)[C@@H](Cc2c[nH]c3ccccc23)NC(=O)[C@H](Cc2ccccc2)NC1=O` [Compound 6, combretastatin-carbonyl-N-(2-aminoethyl)-glycine-D-Ser-Me-D-Tyr-D-Ser-cyclo[Cys-Phe-D-Trp-Lys-Thr-Cys]-Thr-amide] (X1-[Gly(N-2-aminoethyl)][dS][Nle][dY][dS]CF[dW]KTCT-NH2; disulfide 6-11)?
IC50 ([2]; rat pituitary cells): 0.31 ± 0.1 nM; half-life (physchem): 30 h; conjugate that is free cytotoxin after 3 days (physchem; from stability data in buffer, after 3 days): 50%; cytotoxic activity ([3]; IMR32 cells): most cytotoxic; IC50 ([3]; read-out: Cytotoxicity IC50, IMR-32 Cells, 3 days incubation, MTT assay): 2.79 ± 0.33 nM; Half-Life Rat Serum (in vitro; fresh rat serum, 37° C.): 4 h; half-life (in vitro; rat, serum): 4 h

What does the source list for `CCCC[C@H](NC(=O)[C@@H](CO)NC(=O)CN(CCN)C(=O)O[C@]1(CC)C(=O)OCc2c1cc1n(c2=O)Cc2cc3ccccc3nc2-1)C(=O)N[C@H](Cc1ccc(O)cc1)C(=O)N[C@H](CO)C(=O)N[C@H]1CSSC[C@@H](C(=O)N[C@H](C(N)=O)[C@@H](C)O)NC(=O)[C@H]([C@@H](C)O)NC(=O)[C@H](CCCCN)NC(=O)[C@@H](Cc2c[nH]c3ccccc23)NC(=O)[C@H](Cc2ccccc2)NC1=O` [Compound 1, camptothecin-carbonyl-N-(2-aminoethyl)-glycine-D-Ser-Nle-D-Tyr-D-Ser-cyclo[Cys-Phe-D-Trp-Lys-Thr-Cys]-Thr-amide] ({Camptothecin(20S-OCO)}-[Gly(N-2-aminoethyl)][dS][Nle][dY][dS]CF[dW]KTCT-NH2; disulfide 6-11)?
IC50 ([2]; rat pituitary cells): 0.32 ± 0.02 nM; cytotoxic effect in the tumor (tumor): equally effective; buffer stability (physchem; [6]): complete buffer stability; cytotoxic potency relative to compound 2 ([3]; IMR32 cells): seven times less potent than compound 2; cytotoxic activity ([3]; IMR32 cells): next most potent; also recorded: high cytotoxicity; stability to cell media incubation conditions ([3]; cell media): very stable; IC50 ([3]; human): 374 ± 18 nM; half-life (in vitro; rat, serum): 106 h; rat serum stability (in vitro; rat, serum): most stable

For `CCCC[C@H](NC(=O)[C@@H](CO)NC(=O)CN(CCCN)C(=O)O[C@]1(CC)C(=O)OCc2c1cc1n(c2=O)Cc2cc3ccccc3nc2-1)C(=O)N[C@H](Cc1ccc(O)cc1)C(=O)N[C@H](CO)C(=O)N[C@H]1CSSC[C@@H](C(=O)N[C@H](C(N)=O)[C@@H](C)O)NC(=O)[C@H]([C@@H](C)O)NC(=O)[C@H](CCCCN)NC(=O)[C@@H](Cc2c[nH]c3ccccc23)NC(=O)[C@H](Cc2ccccc2)NC1=O` [Compound 4] ({Camptothecin(20S-OCO)}-[Gly(N(CH2)3NH2)][dS][Nle][dY][dS]CF[dW]KTCT-NH2; disulfide 6-11), which IC50 ([2]; rat pituitary cells) is on record?
The IC50 was 0.26 ± 0.03 nM.

And the “buffer stability” value (physchem; [6])?
The value was “complete buffer stability”.

And the IC50 ([3]; human)?
Its IC50 is over 1000 nM.

And the half-life (in vitro; rat, serum)?
Its half-life is 72 h.

What about the “rat serum stability” value (in vitro; rat, serum) of the same compound?
The value was “most stable”.
